Key:
Assay in all cases: Test D controlled growth environment herbicide test, pre- and postemergence
Format in all cases: in vivo
[1] = tested on: kochia (Kochia scoparia)
Outline: (§1)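 Rating is visual, 0–100 scale (100 = complete control), made against untreated plants 14–21 d after treatment in controlled growth conditions. Postemergence sprays went onto 1- to 4-leaf plants in peat medium; preemergence sprays onto silt loam after sowing; formulation included a surfactant.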

[2] = tested on: barley, spring (spring barley, Hordeum vulgare)
Outline: as §1

[3] = tested on: buckwheat, wild (wild buckwheat, Polygonum convolvulus)
Outline: as §1

[4] = tested on: oilseed rape (Brassica napus)
Outline: as §1

[5] = tested on: wheat, spring (spring wheat, Triticum aestivum)
Outline: as §1

[6] = tested on: canarygrass (Phalaris minor)
Outline: as §1

[7] = tested on: pigweed (Amaranthus retroflexus)
Outline: as §1

[8] = tested on: galium (catchweed bedstraw, Galium aparine)
Outline: as §1

[9] = tested on: field violet (Viola arvensis)
Outline: as §1

[10] = tested on: wheat, winter (winter wheat, Triticum aestivum)
Outline: as §1

[11] = tested on: chickweed (common chickweed, Stellaria media)
Outline: as §1

[12] = tested on: Russian thistle (Salsola kali)
Outline: as §1

[13] = tested on: oat, wild (wild oat, Avena fatua)
Outline: as §1

[14] = Postemergence, 31 g ai/ha, scale 0 to 100 (0 no effect, 100 complete control)
[15] = Postemergence, 125 g ai/ha, visual rating on scale 0 (no effect) to 100 (complete control), 14 to 21 d
[16] = Postemergence, 250 g ai/ha, scale 0 to 100 (0 no effect, 100 complete control)
[17] = Preemergence, 62 g ai/ha, scale 0 to 100 (0 no effect, 100 complete control)
[18] = Preemergence, 125 g ai/ha, scale 0 to 100 (0 no effect, 100 complete control)
[19] = Preemergence, 250 g ai/ha, scale 0 to 100, 0 no effect, 100 complete control
[20] = postemergence, 62 g ai/ha, scale 0 to 100, 0 no effect, 100 complete control

Cn1nc(Br)c(O)c(-c2cccc3ccccc23)c1=O [Compound 20]
Kochia plant response rating [1, 14]: 35
Plant response rating, Kochia [1, 15]: 85
Plant response rating, Kochia [1, 16]: 100
Plant response rating (scale of 0 to 100), Kochia ([1]; Preemergence, 31 g ai/ha): 0
Plant response rating, Kochia [1, 17]: 25
Plant response rating, Kochia [1, 18]: 70
Plant response rating, Kochia [1, 19]: 90
Plant response rating, Kochia [1, 20]: 65
Plant response rating, Barley, Spring [2, 14]: 0
Plant response rating, Barley, Spring [2, 15]: 0
Plant response rating, Barley, Spring [2, 16]: 0
Plant response rating (scale of 0 to 100), Barley, Spring ([2]; Preemergence, 31 g ai/ha): 0
Plant response rating, Barley, Spring [2, 17]: 0
Plant response rating, Barley, Spring [2, 18]: 0
Barley, Spring plant response rating [2, 19]: 0
Plant response rating, Barley, Spring [2, 20]: 0
Buckwheat, Wild plant response rating [3, 14]: 80
Plant response rating, Buckwheat, Wild [3, 15]: 100
Plant response rating, Buckwheat, Wild [3, 16]: 100
Plant response rating (scale of 0 to 100), Buckwheat, Wild ([3]; Preemergence, 31 g ai/ha): 15
Plant response rating, Buckwheat, Wild [3, 17]: 20
Plant response rating, Buckwheat, Wild [3, 18]: 100
Plant response rating, Buckwheat, Wild [3, 19]: 100
Plant response rating, Buckwheat, Wild [3, 20]: 100
Oilseed Rape plant response rating [4, 14]: 0
Plant response rating, Oilseed Rape [4, 15]: 5
Plant response rating, Oilseed Rape [4, 16]: 5
Plant response rating (scale of 0 to 100), Oilseed Rape ([4]; Preemergence, 31 g ai/ha): 0
Plant response rating, Oilseed Rape [4, 17]: 0
Plant response rating, Oilseed Rape [4, 18]: 0
Plant response rating, Oilseed Rape [4, 19]: 0
Plant response rating, Oilseed Rape [4, 20]: 0
Wheat, Spring plant response rating [5, 14]: 0
Plant response rating, Wheat, Spring [5, 15]: 15
Plant response rating, Wheat, Spring [5, 16]: 20
Plant response rating (scale of 0 to 100), Wheat, Spring ([5]; Preemergence, 31 g ai/ha): 0
Plant response rating, Wheat, Spring [5, 17]: 15
Plant response rating, Wheat, Spring [5, 18]: 25
Plant response rating, Wheat, Spring [5, 19]: 45
Plant response rating, Wheat, Spring [5, 20]: 15
Canarygrass plant response rating [6, 14]: 10
Plant response rating, Canarygrass [6, 15]: 45
Plant response rating, Canarygrass [6, 16]: 55
Plant response rating (scale of 0 to 100), Canarygrass ([6]; Preemergence, 31 g ai/ha): 25
Plant response rating, Canarygrass [6, 17]: 35
Plant response rating, Canarygrass [6, 18]: 70
Plant response rating, Canarygrass [6, 19]: 80
Plant response rating, Canarygrass [6, 20]: 30
Pigweed plant response rating [7, 14]: 80
Plant response rating, Pigweed [7, 15]: 100
Plant response rating, Pigweed [7, 16]: 100
Plant response rating (scale of 0 to 100), Pigweed ([7]; Preemergence, 31 g ai/ha): 30
Plant response rating, Pigweed [7, 17]: 40
Plant response rating, Pigweed [7, 18]: 100
Plant response rating, Pigweed [7, 19]: 100
Plant response rating, Pigweed [7, 20]: 100
Galium plant response rating [8, 14]: 70
Plant response rating, Galium [8, 15]: 100
Plant response rating, Galium [8, 16]: 100
Plant response rating (scale of 0 to 100), Galium ([8]; Preemergence, 31 g ai/ha): 10
Plant response rating, Galium [8, 17]: 30
Plant response rating, Galium [8, 18]: 75
Plant response rating, Galium [8, 19]: 85
Plant response rating, Galium [8, 20]: 75
Field Violet plant response rating [9, 14]: 5
Plant response rating, Field Violet [9, 15]: 25
Plant response rating, Field Violet [9, 16]: 45
Plant response rating (scale of 0 to 100), Field Violet ([9]; Preemergence, 31 g ai/ha): 0
Plant response rating, Field Violet [9, 17]: 15
Plant response rating, Field Violet [9, 18]: 25
Plant response rating, Field Violet [9, 19]: 75
Plant response rating, Field Violet [9, 20]: 15
Wheat, Winter plant response rating [10, 14]: 0
Plant response rating, Wheat, Winter [10, 15]: 15
Plant response rating, Wheat, Winter [10, 16]: 25
Plant response rating (scale of 0 to 100), Wheat, Winter ([10]; Preemergence, 31 g ai/ha): 0
Plant response rating, Wheat, Winter [10, 17]: 0
Plant response rating, Wheat, Winter [10, 18]: 15
Plant response rating, Wheat, Winter [10, 19]: 25
Plant response rating, Wheat, Winter [10, 20]: 10
Chickweed plant response rating [11, 14]: 90
Plant response rating, Chickweed [11, 15]: 100
Plant response rating, Chickweed [11, 16]: 100
Plant response rating (scale of 0 to 100), Chickweed ([11]; Preemergence, 31 g ai/ha): 85
Plant response rating, Chickweed [11, 17]: 95
Plant response rating, Chickweed [11, 18]: 95
Plant response rating, Chickweed [11, 19]: 95
Plant response rating, Chickweed [11, 20]: 100
Russian Thistle plant response rating [12, 14]: 70
Plant response rating, Russian Thistle [12, 15]: 80
Plant response rating, Russian Thistle [12, 16]: 98
Plant response rating (scale of 0 to 100), Russian Thistle ([12]; Preemergence, 31 g ai/ha): 0
Plant response rating, Russian Thistle [12, 17]: 30
Plant response rating, Russian Thistle [12, 18]: 40
Plant response rating, Russian Thistle [12, 19]: 70
Plant response rating, Russian Thistle [12, 20]: 75
Oat, Wild plant response rating [13, 14]: 20
Plant response rating, Oat, Wild [13, 15]: 60
Plant response rating, Oat, Wild [13, 16]: 75
Plant response rating (scale of 0 to 100), Oat, Wild ([13]; Preemergence, 31 g ai/ha): 35
Plant response rating, Oat, Wild [13, 17]: 65
Plant response rating, Oat, Wild [13, 18]: 85
Plant response rating, Oat, Wild [13, 19]: 95
Plant response rating, Oat, Wild [13, 20]: 25

Reference: patent US10597388B2, “Pyridazinone herbicides” (FMC CORPORATION, priority 2014, dated 2020)
